Source: patent US9351963B2, “Defensin-like molecules as novel antimicrobial agents” (UNIVERSITY OF MARYLAND, BALTIMORE, priority 2010, dated 2016)

Legend:
S. aureus ATCC 29213 = experiment: Murine peritoneal sepsis model; assay type: in vivo, C57BL/6J mice; conditions: 5 mg/kg intraperitoneally, preliminary experiments (not shown)
[1] = NMR interaction with Lipid II; assay type: binding; conditions: 0.15 mM Lipid II + 0.15 mM compound, d6-DMSO, 25° C.
Experimental: The NMR samples included 0.15 mM Lipid II, 0.15 mM BAS00127538 compound, or 0.15 mM Lipid II+0.15 mM BAS00127538 compound. All samples were dissolved in 90% double distilled H20+10% DMSO, incubated for 30 minutes, freeze-dried, and then dissolved in 300 uL of d6-DMSO. NMR experiments were carried out at 25° C. on an 800 MHz Bruker Avance NMR spectrometer (800.27 MHz for protons) equipped with a pulse-field gradient unit, four frequency channels, and a triple resonance TXI cryoprobe (Bruker Biospin, Billerica, Mass.). 1D proton experiments were collected to probe for chemical shift changes and 2D TOCSY (30, 60, and 90 msec spinlock times), 2D NOESY (150 and 300 msec mixing times), and natural abundance ^13C-HSQC experiments were collected to determine proton and carbon chemical shift assignments.
To confirm the binding of defensins mimetic BAS00127538 to Lipid II the inventors observed by SPR, their interaction was studied directly by NMR (FIG. 7). Specifically, the inventors used 1D proton NMR spectra to determine if any chemical shift changes occur when the compound was added to 3-Lipid II. […] This Figure depicts an analysis of 2D TOCSY spectra collected at 800 MHz of the aromatic region of compound BAS00127538 alone (black) overlaid with spectra of compound bound to Lipid II (red). […]

[2] = test system: Escherichia coli ATCC 25922; experiment: 96-well turbidimetric antibacterial killing assay, E. coli; assay type: cell-based; conditions: E. coli
Experimental: The antibacterial activity of defensin mimetics against Staphylococcus aureus ATCC 29213 and Escherichia coli 25922 was carried out in a 96-well turbidimetric assay essentially as described (Ericksen, B., Wu, Z., Lu, W., and Lehrer, R. I. (2005) Antimicrob Agents Chemother 49, 269-275) with the following modifications: compounds were exposed for 30 min to […] prior to addition of […] in 10 mM phosphate buffer containing 5% DMSO. Bacterial growth was monitored for 12 hours and data were analyzed as described (Ericksen, et al). Determination of MICs was performed by Micromyx, LLC (Kalamazoo, Mich.) according to CLSI standards (CLSI. (2009) Methods for Dilution Antimicrobial Susceptibility Tests for Bacteria That Grow Aerobically; Approved Standard—Eighth Edition.)
The inventors have previously reported on the antibacterial activity of HNP1 and all of its structurally uncompromised single alanine mutants against S. aureus (Wei, G., Pazgier, M., de Leeuw, E., Rajabi, M., Li, J., Zou, G., Jung, G., Yuan, W., Lu, W. Y., Lehrer, R. I., and Lu, W. J Biol Chem 285, 16275-16285). […] If these residues are indeed important for Lipid II binding, one would expect that replacement by alanine will not affect killing of Gram-negative bacteria. […] In particular, FIG. 12 depicts killing of E. coli by HNP-1 Lipid II single alanine mutants. Survival curves of E. coli ATCC 25922 exposed to HNP-1 or HNP-1 single alanine mutants at concentrations varying two-fold from […]. Bacteria were exposed to defensin peptides for 120 min. Each curve is the mean of two separate experiments (±S.D.). Points scored as zero survival could not be plotted.

CN1/C(=C/C=C/c2cc(-c3ccccc3)cc(-c3ccccc3)[o+]2)C(C)(C)c2ccccc21 [BAS00127538, 2,4-diphenyl-6-[(1E)-3-[(2E)-1,3,3-trimethyl-2,3-dihydro-1H-indol-2-ylidene]prop-1-en-1-yl]-1$1^4-pyran-1-ylium]
Clearing non-lethal doses of S. aureus 29213 (S. aureus ATCC 29213): most efficacious
Interaction with Lipid II by NMR analysis [1]: found to interact
Concentration at which compound was 100% bactericidal against E. coli [2]: 7.8 µM
